Key:
THP-1 (AML) cells = experiment: LSD1 CD11b Cellular Assay (flow cytometry); type: cell-based; settings: Homo sapiens, 96 h; CD11b expression in THP-1 cells, 4 days
Experimental: To analyze LSD1 inhibitor efficacy in cells, a CD11b flow cytometry assay was performed. LSD1 inhibition induces CD11b expression in THP-1 (AML) cells which can be measured by flow cytometry. […] LSD1 test compounds were serially diluted in DMSO. The dilutions were added to each well accordingly to a final concentration of 0.2% DMSO. The cells were incubated at 37 degrees Celsius in 5% CO2 for 4 days. 250 μL of each well was transferred to a well in a 96 well round bottom plate. The plate was centrifuged at 1200 rpm at 4 degrees Celsius in a Beckman Coulter Alegra 6KR centrifuge for 5 minutes. The media was removed leaving the cells at the bottom of the wells. The cells were washed in 100 μL cold HBSS (Hank's Balanced Salt Solution) plus 2% BSA (Bovine Serum Albumin) solution and centrifuged at 1200 rpm at 4 degrees Celsius for 5 minutes. The wash was removed. […] The cells were centrifuged and washed two times in 100 μl HBSS plus 2% BSA. After the final spin the cells were resuspended in 100 μL HBSS plus 2% BSA containing 1 ug/mL DAPI (4′,6-diamidino-2-phenylindole). The cells were then analyzed by flow cytometry in a BD FACSAria machine. Cells were analyzed for CD11b expression. The percent of CD11b expressing cells for each inhibitor concentration was used to determine an IC50 curve for each compound analyzed.

full-length human LSD1 = full-length human LSD1 (Homo sapiens (Human), UniProt O60341); experiment: In Vitro Enzyme Inhibition Assay—LSD-1 (TR-FRET); type: biochemical; settings: H3K4me1-biotin labeled peptide
Experimental: This assay determines the ability of a test compound to inhibit LSD1 demethylase activity. E. coli expressed full-length human LSD1 (Accession number 060341) was purchased from Active Motif (Cat#31334).
The enzymatic assay of LSD1 activity is based on Time Resolved-Fluorescence Resonance Energy Transfer (TR-FRET) detection. The inhibitory properties of compounds to LSD1 were determined in 384-well plate format under the following reaction conditions: 0.1-0.5 nM LSD1, 50 nM H3K4me1-biotin labeled peptide (Anaspec cat #64355), 2 μM FAD in assay buffer of 50 mM HEPES, pH7.3, 10 mM NaCl, 0.005% Brij35, 0.5 mM TCEP, 0.2 mg/ml BSA. Reaction product was determined quantitatively by TR-FRET after the addition of detection reagent Phycolink Streptavidin-allophycocyanin (Prozyme) and Europium-anti-unmodified histone H3 lysine 4 (H3K4) antibody (PerkinElmer) in the presence of LSD1 inhibitor such as 1.8 mM of Tranylcypromine hydrochloride (2-PCPA) in LANCE detection buffer (PerkinElmer) to final concentration of 12.5 nM and 0.25 nM respectively.
The assay reaction was performed according to the following procedure: 2 μL of the mixture of 150 nM H3K4me1-biotin labeled peptide with 2 μL of 11-point serial diluted test compound in 3% DMSO were added to each well of plate, followed by the addition of 2 μL of 0.3 nM LSD1 and 6 μM of FAD to initiate the reaction. The reaction mixture was then incubated at room temperature for one hour, and terminated by the addition of 6 μL of 1.8 mM 2-PCPA in LANCE detection buffer containing 25 nM Phycolink Streptavidin-allophycocyanin and 0.5 nM Europium-anti-unmodified H3K4 antibody. Enzymatic reaction is terminated within 15 minutes if 0.5 LSD1 enzyme is used in the plate. Plates were read by EnVision Multilabel Reader in TR-FRET mode (excitation at 320 nm, emission at 615 nm and 665 nm) after 1 hour incubation at room temperature. A ratio was calculated (665/615) for each well and fitted to determine inhibition constant (IC50).
The ability of the compounds disclosed herein to inhibit LSD1 activity was quantified and the respective IC50 value was determined. Table 3 provides the IC50 values of various substituted heterocyclic compounds disclosed herein.

Which results are given for Cn1ncc2cc(-c3sc(N4CCC(N)CC4)nc3-c3ccc(C#N)cc3)ccc21 [Example 1, 4-[2-(4-aminopiperidin-1-yl)-5-(1-methyl-1H-indazol-5-yl)-1,3-thiazol-4-yl]benzonitrile]?
IC50 (THP-1 (AML) cells): < 0.1 µM; IC50 (full-length human LSD1): ≤ 0.1 µM

Which IC50 (THP-1 (AML) cells) does the source give for Cn1ncc2cc(-c3sc(N4CC[C@@H]5CNC[C@@H]5CC4)nc3-c3ccc(C#N)cc3)ccc21 [Example 2, cis-4-(2-{decahydropyrrolo[3,4-d]azepin-6-yl}-5-(1-methyl-1H-indazol-5-yl)-1,3-thiazol-4-yl)benzonitrile] here?
The IC50 was less than 0.1 µM.

Which results are given for Cn1ccc2cc(-c3sc(N4CCC(N)CC4)nc3-c3ccc(C#N)cc3)cnc21 [Example 3, 4-[2-(4-aminopiperidin-1-yl)-5-{1-methyl-1H-pyrrolo[2,3-b]pyridin-5-yl}-1,3-thiazol-4-yl]benzonitrile]?
IC50 (THP-1 (AML) cells): < 0.1 µM; IC50 (full-length human LSD1): ≤ 0.1 µM

What does the source list for Cn1ncc2cc(-c3sc(N4CCC(N)CC4)nc3-c3ccc(C#N)cc3)cnc21 [Example 4, 4-[2-(4-aminopiperidin-1-yl)-5-{1-methyl-1H-pyrazolo[3,4-b]pyridin-5-yl}-1,3-thiazol-4-yl]benzonitrile]?
IC50 (THP-1 (AML) cells): < 0.1 µM; IC50 (full-length human LSD1): ≤ 0.1 µM

For Cn1ncc2cc(-c3sc(N4CCC5(CCNC5)CC4)nc3-c3ccc(C#N)cc3)ccc21 [Example 5, 4-(2-{2,8-diazaspiro[4.5]decan-8-yl}-5-(1-methyl-1H-indazol-5-yl)-1,3-thiazol-4-yl)benzonitrile], which IC50 (THP-1 (AML) cells) is on record?
The IC50 was 0.1 to 1 µM.

And the IC50 (full-length human LSD1)?
Its IC50 is no more than 0.1 µM.

How did the IC50 (THP-1 (AML) cells) turn out when Cn1ncc2cc(-c3sc(N4CCC5NCCC5C4)nc3-c3ccc(C#N)cc3)ccc21 (stereo not drawn) [Example 6] was run?
The IC50 was less than 0.1 µM.

What about the IC50 (full-length human LSD1) of the same compound?
The IC50 was no more than 0.1 µM.

What does the source list for Cn1ncc2cc(-c3sc(N4CCC5CNCC5C4)nc3-c3ccc(C#N)cc3)ccc21 (stereo not drawn) [Example 7]?
IC50 (THP-1 (AML) cells): < 0.1 µM; IC50 (full-length human LSD1): ≤ 0.1 µM

What does the source list for Cn1cnc2cc(-c3sc(N4CCC(N)CC4)nc3-c3ccc(C#N)cc3)ccc21 [Example 8, 4-[2-(4-aminopiperidin-1-yl)-5-(1-methyl-1H-1,3-benzodiazol-5-yl)-1,3-thiazol-4-yl]benzonitrile]?
IC50 (THP-1 (AML) cells): < 0.1 µM; IC50 (full-length human LSD1): ≤ 0.1 µM

With Cn1cnc2cc(-c3sc(N4CCC(N)CC4)nc3-c3ccc(C#N)cc3)cnc21 [Example 9, 4-[2-(4-aminopiperidin-1-yl)-5-{3-methyl-3H-imidazo[4,5-b]pyridin-6-yl}-1,3-thiazol-4-yl]benzonitrile] as the compound, how does the IC50 (THP-1 (AML) cells) read?
Its IC50 is less than 0.1 µM.

And the IC50 (full-length human LSD1)?
The IC50 was no more than 0.1 µM.

How did the IC50 (THP-1 (AML) cells) turn out when Cn1cnc2cc(-c3sc(N4CC[C@@H]5CNC[C@@H]5CC4)nc3-c3ccc(C#N)cc3)ccc21 [Example 10, cis-4-(2-{decahydropyrrolo[3,4-d]azepin-6-yl}-5-(1-methyl-1H-1,3-benzodiazol-5-yl)-1,3-thiazol-4-yl)benzonitrile] was run?
Its IC50 is less than 0.1 µM.

What about the IC50 (full-length human LSD1) of the same compound?
The IC50 was no more than 0.1 µM.

What does the source list for Cn1ncc2cc(-c3sc(N4CC[C@@H]5CNC[C@@H]5CC4)nc3-c3ccc(C#N)cc3)cnc21 [Example 11, cis-4-(2-{decahydropyrrolo[3,4-d]azepin-6-yl}-5-{1-methyl-1H-pyrazolo[3,4-b]pyridin-5-yl}-1,3-thiazol-4-yl)benzonitrile]?
IC50 (THP-1 (AML) cells): < 0.1 µM; IC50 (full-length human LSD1): ≤ 0.1 µM

Which IC50 (THP-1 (AML) cells) does the source give for N#Cc1ccc(-c2nc(N3CCC(N)CC3)sc2-c2cnn(CC(F)(F)F)c2)cc1 [Example 12, 4-[2-(4-aminopiperidin-1-yl)-5-[1-(2,2,2-trifluoroethyl)-1H-pyrazol-4-yl]-1,3-thiazol-4-yl]benzonitrile] here?
Its IC50 is less than 0.1 µM.

And the IC50 (full-length human LSD1)?
The IC50 was no more than 0.1 µM.

With N#Cc1ccc(-c2nc(N3CC[C@@H]4CNC[C@@H]4CC3)sc2-c2cnn(CC(F)(F)F)c2)cc1 [Example 13, 4-(2-{decahydropyrrolo[3,4-d]azepin-6-yl}-5-[1-(2,2,2-trifluoroethyl)-1H-pyrazol-4-yl]-1,3-thiazol-4-yl)benzonitrile] as the compound, how does the IC50 (THP-1 (AML) cells) read?
The IC50 was less than 0.1 µM.

What about the IC50 (full-length human LSD1) of the same compound?
Its IC50 is no more than 0.1 µM.

N#Cc1ccc(-c2nc(N3CCC(N)CC3)sc2-c2cnn(CC3CC3)c2)cc1 [Example 14, 4-[2-(4-aminopiperidin-1-yl)-5-[1-(cyclopropylmethyl)-1H-pyrazol-4-yl]-1,3-thiazol-4-yl]benzonitrile] was tested. Which IC50 (THP-1 (AML) cells) did it give?
Its IC50 is 0.1 to 1 µM.

What about the IC50 (full-length human LSD1) of the same compound?
Its IC50 is no more than 0.1 µM.

N#Cc1ccc(-c2nc(N3CC[C@@H]4CNC[C@@H]4CC3)sc2-c2cnn(CC3CC3)c2)cc1 [Example 15, 4-{5-[1-(cyclopropylmethyl)-1H-pyrazol-4-yl]-2-{decahydropyrrolo[3,4-d]azepin-6-yl}-1,3-thiazol-4-yl}benzonitrile] was tested. Which IC50 (THP-1 (AML) cells) did it give?
The IC50 was 0.1 to 1 µM.

What about the IC50 (full-length human LSD1) of the same compound?
The IC50 was no more than 0.1 µM.

For Cn1cnc2cc(-c3sc(C(=O)N4CCC[C@@H](N)C4)nc3-c3ccc(C#N)cc3)ccc21 [Example 16, 4-{2-[(3R)-3-aminopiperidine-1-carbonyl]-5-(1-methyl-1H-1,3-benzodiazol-5-yl)-1,3-thiazol-4-yl}benzonitrile], which IC50 (THP-1 (AML) cells) is on record?
Its IC50 is less than 0.1 µM.

And the IC50 (full-length human LSD1)?
The IC50 was no more than 0.1 µM.

Which results are given for Cn1cnc2cc(-c3sc(C(=O)N4CCC[C@H](N)C4)nc3-c3ccc(C#N)cc3)ccc21 [Example 17, 4-{2-[(3 S)-3-aminopiperidine-1-carbonyl]-5-(1-methyl-1H-1,3-benzodiazol-5-yl)-1,3-thiazol-4-yl}benzonitrile]?
IC50 (THP-1 (AML) cells): < 0.1 µM; IC50 (full-length human LSD1): ≤ 0.1 µM

Which IC50 (THP-1 (AML) cells) does the source give for Cn1cnc2cc(-c3sc(C(=O)N4CCC(N)CC4)nc3-c3ccc(C#N)cc3)ccc21 [Example 18, 4-[2-(4-aminopiperidine-1-carbonyl)-5-(1-methyl-1H-1,3-benzodiazol-5-yl)-1,3-thiazol-4-yl]benzonitrile] here?
The IC50 was less than 0.1 µM.

And the IC50 (full-length human LSD1)?
The IC50 was no more than 0.1 µM.

Cc1ccc(-c2sc(C(=O)N3CCC[C@@H](N)C3)nc2-c2ccc(C#N)cc2)cc1 [Example 19, 4-{2-[(3R)-3-aminopiperidine-1-carbonyl]-5-(4-methylphenyl)-1,3-thiazol-4-yl}benzonitrile] was tested. Which IC50 (THP-1 (AML) cells) did it give?
Its IC50 is less than 0.1 µM.

And the IC50 (full-length human LSD1)?
The IC50 was no more than 0.1 µM.

How did the IC50 (THP-1 (AML) cells) turn out when Cn1cnc2cc(-c3sc(C(=O)N4CCC[C@@H](N)C4)nc3-c3ccc(C#N)cc3)cnc21 [Example 20, 4-{2-[(3R)-3-aminopiperidine-1-carbonyl]-5-{3-methyl-3H-imidazo[4,5-b]pyridin-6-yl}-1,3-thiazol-4-yl}benzonitrile] was run?
The IC50 was 0.1 to 1 µM.

What about the IC50 (full-length human LSD1) of the same compound?
Its IC50 is no more than 0.1 µM.

N#Cc1ccc(-c2nc(C(=O)N3CCC[C@@H](N)C3)sc2-c2cnn(CC(F)(F)F)c2)cc1 [Example 21, 4-{2-[(3R)-3-aminopiperidine-1-carbonyl]-5-[1-(2,2,2-trifluoroethyl)-1H-pyrazol-4-yl]-1,3-thiazol-4-yl}benzonitrile] was tested. Which IC50 (THP-1 (AML) cells) did it give?
Its IC50 is less than 0.1 µM.

And the IC50 (full-length human LSD1)?
Its IC50 is no more than 0.1 µM.

With N#Cc1ccc(-c2nc(C(=O)N3CCC[C@@H](N)C3)sc2-c2cnn(CC3CC3)c2)cc1 [Example 22, 4-{2-[(3R)-3-aminopiperidine-1-carbonyl]-5-[1-(cyclopropylmethyl)-1H-pyrazol-4-yl]-1,3-thiazol-4-yl}benzonitrile] as the compound, how does the IC50 (THP-1 (AML) cells) read?
The IC50 was 0.1 to 1 µM.

What about the IC50 (full-length human LSD1) of the same compound?
The IC50 was no more than 0.1 µM.

How did the IC50 (THP-1 (AML) cells) turn out when N#Cc1ccc(-c2nc(N3CCC(N)CC3)cc(=O)n2-c2ccc(C3CC3)cc2)cc1F [Example 26, 4-[4-(4-Aminopiperidin-1-yl)-1-(4-cyclopropylphenyl)-6-oxopyrimidin-2-yl]-2-fluorobenzonitrile] was run?
Its IC50 is less than 0.1 µM.

What about the IC50 (full-length human LSD1) of the same compound?
Its IC50 is no more than 0.1 µM.

N#Cc1ccc(-c2nc(N3CCC4NCCC4C3)cc(=O)n2-c2ccc(C3CC3)cc2)cc1F (stereo not drawn) [Example 27, 4-[4-(1,2,3,3a,4,6,7,7a-octahydropyrrolo[3,2-c]pyridin-5-yl)-1-(4-cyclopropylphenyl)-6-oxopyrimidin-2-yl]-2-fluorobenzonitrile] was tested. Which IC50 (THP-1 (AML) cells) did it give?
The IC50 was less than 0.1 µM.

And the IC50 (full-length human LSD1)?
Its IC50 is no more than 0.1 µM.

For COc1ccc(-n2c(-c3ccc(C#N)c(F)c3)nc(N3CCC(N)CC3)cc2=O)cc1 [Example 32, 4-[4-(4-aminopiperidin-1-yl)-1-(4-methoxyphenyl)-6-oxopyrimidin-2-yl]-2-fluorobenzonitrile], which IC50 (full-length human LSD1) is on record?
The IC50 was no more than 0.1 µM.

Reference: patent US10100046B2, “Inhibitors of lysine specific demethylase-1” (Celgene Quanticel Research, Inc., priority 2014, dated 2018)
